ChEMBL document CHEMBL1212696, “Multienzyme docking in hybrid megasynthetases” (Nat Chem Biol, 2008)

What was measured:
[1] = Binding affinity to wild type Angiococcus disciformis PKS/NRPS expressed in Escherichia coli BL21 (DE3) by isothermal titration calorimetry
[2] = Binding affinity to wild type Angiococcus disciformis PKS/NRPS expressed in Escherichia coli BL21 (DE3) by surface plasmon resonance assay
[3] = Binding affinity to wild type Angiococcus disciformis PKS/NRPS R20A mutant expressed in Escherichia coli BL21 (DE3) by surface plasmon resonance assay
[4] = Binding affinity to wild type Angiococcus disciformis PKS/NRPS R27A mutant expressed in Escherichia coli BL21 (DE3) by surface plasmon resonance assay
[5] = Binding affinity to wild type Angiococcus disciformis PKS/NRPS R29A mutant expressed in Escherichia coli BL21 (DE3) by surface plasmon resonance assay
[6] = Binding affinity to wild type Angiococcus disciformis PKS/NRPS R20A/R27A mutant expressed in Escherichia coli BL21 (DE3) by surface plasmon resonance assay
[7] = Binding affinity to wild type Angiococcus disciformis PKS/NRPS R20A/R29A mutant expressed in Escherichia coli BL21 (DE3) by surface plasmon resonance assay
[8] = Binding affinity to wild type Angiococcus disciformis PKS/NRPS R27A/R29A mutant expressed in Escherichia coli BL21 (DE3) by surface plasmon resonance assay

CCCC(=O)OCN(C(=O)[C@@H](NC(=O)[C@H]1CCCCN1C)[C@@H](C)CC)[C@H](C[C@@H](OC(C)=O)c1nc(C(=O)N[C@@H](Cc2ccc(O)cc2)C[C@H](C)C(=O)O)cs1)C(C)C [TUBULYSIN B]
Kd [1]: 47 µM | Kd [2]: 46 µM | Kd [3]: 59 µM | Kd [4]: 121 µM | Kd [5]: 453 µM | Kd [6]: 114 µM | Kd [7]: 596 µM | Kd [8]: 282 µM
